≈ marks a conversion by molar mass, not a printed value.
How the values were obtained:
Format in all cases: cell-based
[1] = test system: Fluconazole Resistant Candida albicans clinical isolate; experiment: MIC (80% growth inhibition), broth microdilution NCCLS M27-A, fluconazole resistant Candida albicans; settings: Candida albicans
Protocol: The antimicrobial effect of N-dealkyl-trans-clopenthixol and N-dealkyl-trans-flupenthixol was studied by exposing cells to 0-8 μg/ml of the compounds in two-fold dilutions. Each experiment was repeated in triple duplicate. MIC values represent the mean values of two separate experiments.
Clinical Isolate of A Fluconazole Resistant Candida albicans from a Patient with Candidemia.
The isolates were subcultured for 24 h on Sabouraud glucose agar before susceptibility testing. Broth microdilution tests were performed according to NCCLS document M27-A (Ref: National Commitee for Clinical Laboratory Standards. (1997). Reference Method for Broth Dilution Antifungal Susceptibility Testing of Yeasts: Approved Standard M27-A. NCCLS, Wayne, Pa.)
Microtitre plates were read spectrophotometrically at 530 nm, after mixing the wells by pipetting to resuspend yeast sediments. The MIC was defined as the lowest drug dilution resulting in 80% growth inhibition.

[2] = test system: Staphylococci, Micrococci. Including MRSA; experiment: MIC/IC90 broad spectrum, Staphylococci and Micrococci; settings: 30 strains, 20 resistant (20 MRSA)
Protocol: (§1) Cell growth was tested using the Minimal Inhibitory Concentration (MIC) susceptibility tests by use of the microdilution broth method in accordance to the NCCLS Guidelines (NCCLS Guidelines, Methods for Dilution Antimicrobial Susceptibility Tests for Bacteria That Grow Aerobically; Approved Standard, Sixth Edition, Volume 23; Number 2). The minimum inhibitory concentration (MIC), is defined ad the lowest concentration of drug which inhibits growth of the test organism, in the sense that no visible growth is detected (total inhibition of growth). In example 2 MIC of the compounds used on fungal microorganisms was determined from the IC90 measurements according to NCCLS Guidelines.
(§2) A log phase culture of bacteria was diluted with fresh pre-warmed Mueller-Hinton medium and adjusted to a defined OD at 600 nm in order to give a final concentration of 1×10^4-5 bacteria/ml medium. The bacterial culture was transferred to microtiter-plates and culture was added to each well. Drug was added to the bacterial culture in the wells as two-fold dilution series of drug in order to give final concentrations ranging from 0.03 to 128 μg/ml. Trays were incubated at 37° C. by shaking in a robot analyzer, PowerWavex, software KC^4′ Kebo.Lab, Copenhagen, for 16 h and optical densities were measured at 600 nm during the incubation time in order to record growth curves. Wells containing bacterial culture without drug were used as controls to ensure correct inoculum size and bacterial growth during the incubation. Cultures were tested in order to detect contaminations. Each experiment was repeated in triplicate. MIC values represent the mean values of two separate triplicate experiments. Intra- and interassay variation was <5%.
(§3) Inhibition 90 (IC90) is defined as: OD responding a 90% growth inhibition.
(§4) A broad spectrum of bacteria were cultured and assayed as described above for susceptibility towards N-dealkyl-clopenthixol.

[3] = test system: clinically relevant resistant bacterial isolate S. Aureus; experiment: Growth inhibition by cis/trans combinations, resistant isolate S. Aureus; settings: Cis-compound 16 μg/ml, Trans-compound 0 μg/ml
Protocol: as §1
as §2, with “Wells containing bacterial culture without drug were used as controls to ensure correct inoculum size and bacterial growth during the incubation. Cultures were tested in order to detect contaminations. Each experiment was repeated in triplicate. MIC values represent the mean values of two separate triplicate experiments. Intra- and interassay variation was <5%.” left out

[4] = test system: Enterococcus faecium resistant clinical isolates; experiment: MIC/IC90, resistant clinical isolates of Enterococcus faecium
Protocol: as §1, §2
Inhibition 90 (IC90) is defined as: OD responding a 90% growth inhibition. […]
(§5) Clinically relevant isolates were cultured and assayed as described above.

[5] = test system: Candida glabrata Multiresistant isolate; experiment: MIC of cis- and trans-forms, Candida glabrata multiresistant isolate; settings: Example 4
Protocol: as §1
Cultured microorganisms were assayed as described above. Cis- and trans-isomers of N-dealkyl-clopenthixol was added to the cultures.

[6] = test system: Enterococcus faecalis resistant clinical isolates; experiment: MIC/IC90, resistant clinical isolates of Enterococcus faecalis
Protocol: as §1, §2, §3, §5

[7] = test system: multiresistant clinical isolate of Staphylococcus epidermidis; experiment: MIC, microdilution broth method (NCCLS), Staphylococcus epidermidis
Protocol: as §1
as §2, with “Drug was added to the bacterial culture in the wells as two-fold dilution series of drug in order to give final concentrations ranging from 0.03 to 128 μg/ml.” left out, “triplicate.” for “triplicate. MIC values represent the mean values of two separate triplicate experiments. Intra- and interassay variation was <5%.”
A clinically relevant isolate of Staphylococcus epidermidis was cultured and assayed as described above for susceptibility towards the compounds listed in table 1.

Gram negative sp. = experiment: MIC/IC90 broad spectrum, Gram negative sp.; settings: 25 strains, 20 resistant
Protocol: as §1, §2, §3, §4

Streptococci = experiment: MIC/IC90 broad spectrum, Streptococci; settings: 30 strains, 20 resistant
Protocol: as §1, §2, §3, §4

[8] = test system: Candida glabrata clinical isolates; experiment: MIC (90% growth inhibition), broth microdilution NCCLS M27-A, Candida glabrata
Protocol: as §1, with “Guidelines. […]” for “Guidelines.”
(§6) 4 clinical isolates of Candida sp. (including 3 fluconazole resistant isolates) were subcultured for 24 h on Sabouraud glucose agar before susceptibility testing. Broth microdilution tests were performed according to NCCLS document M27-A (Ref: National Committee for Clinical Laboratory Standards. (1997). Reference Method for Broth Dilution Antifungal Susceptibility Testing of Yeasts: Approved Standard M27-A. NCCLS, Wayne, Pa.). Microtitre plates were read spectrophotometrically at 530 nm, after mixing the wells by pipetting to resuspend yeast sediments. In this experiment, the MIC was defined as the lowest drug dilution resulting in 90% growth inhibition.

[9] = test system: Candida albicans clinical isolate; experiment: MIC (90% growth inhibition), broth microdilution NCCLS M27-A, Candida albicans; settings: strain 1. Candida albicans FR (fluconazole resistant)
Protocol: as §1
The antibacterial effect of demethylated/dealkylated phenothiazine or thioxanthene compounds were studied by growth inhibition studies exposing cells to 0-32 μg/ml of drug. Each experiment was repeated in triplicate. MIC values represent the mean values of two separate triplicate experiments.
as §6

[10] = multiresistant clinical isolate of Staphylococcus epidermidis, Example 1
[11] = strain 2. Candida glabrata FR (fluconazole resistant)
[12] = strain 4. Candida glabrata FR (fluconazole resistant)

`OC(Cn1cncn1)(Cn1cncn1)c1ccc(F)cc1F` [Fluconazole, reference compound] gave an MIC [1] of 128 µg/mL (≈ 418 µM).

`Clc1ccc2c(c1)/C(=C\CCN1CCNCC1)c1ccccc1S2` [N-dealkyl-cis-clopenthixol, cis-1-(3-(2-chlorothioxanthen-9-ylidene)propyl)piperazine] was tested, and the “MIC (mean)” value [2] was 16 µg/mL (≈ 44.8 µM), the Growth inhibition [3] was 100% and the MIC ([4]; Enterococcus faecium 11, VanA) was >8 µg/mL. For the same compound, the MIC ([4]; Enterococcus faecium 12, VanA) was >8 µg/mL, the MIC ([4]; Enterococcus faecium 13, VanB) was >8 µg/mL and the MIC ([4]; Enterococcus faecium 14, HLAR) was >8 µg/mL. For the same compound, the MIC ([4]; Enterococcus faecium 15, HLAR) was >8 µg/mL, the MIC ([4]; Enterococcus faecium 16, BLR, CR) was >8 µg/mL and the MIC ([4]; Enterococcus faecium 17, VanB) was >8 µg/mL. For the same compound, the MIC ([4]; Enterococcus faecium 18, VanB) was >8 µg/mL, the MIC ([4]; Enterococcus faecium 19, VanB) was >8 µg/mL and the MIC ([4]; Enterococcus faecium multiresistant isolate, Example 4) was 16 µg/mL (≈ 44.8 µM). For the same compound, the MIC [5] was >16 µg/mL, the MIC ([6]; Enterococcus faecalis 1, VanA) was >8 µg/mL and the MIC ([6]; Enterococcus faecalis 2, VanA) was >8 µg/mL. The MIC ([6]; Enterococcus faecalis 3, VanA) was >8 µg/mL, the MIC ([6]; Enterococcus faecalis 4, VanB) was >8 µg/mL and the MIC ([6]; Enterococcus faecalis 5, Van B) was >8 µg/mL. For the same compound, the MIC ([6]; Enterococcus faecalis 6, VanB) was >8 µg/mL, the MIC ([6]; Enterococcus faecalis 7, VanA) was >8 µg/mL and the MIC ([6]; Enterococcus faecalis 8, HLAR) was >8 µg/mL. The MIC ([6]; Enterococcus faecalis 9, HLAR) was >8 µg/mL, the MIC ([6]; Enterococcus faecalis 10, BLR, CR) was >8 µg/mL and the MIC ([7]; Staphylococcus epidermidis multiresistant isolate, Example 6, isomers alone and 1:1 mixture) was >8 µg/mL. The MIC [7, 10] was 16 µg/mL (≈ 44.8 µM), the “MIC (mean)” value (Gram negative sp.) was >16 µg/mL and the “MIC (mean)” value (Streptococci) was 16 µg/mL (≈ 44.8 µM).

Compound `Fc1ccc2c(c1)C(=CCCN1CCNCC1)c1ccccc1S2` [N-dealkyl-cis-flupenthixol, cis-1-(3-(2-fluor-thioxanthen-9-ylidene)propyl)piperazine] has an MIC [7, 10] of 16 µg/mL (≈ 47 µM).

Compound `FC(F)(F)c1ccc2c(c1)N(CCCN1CCNCC1)c1ccccc1S2` [N-deshydroxy-ethyl-Fluphenazine, reference compound] has an MIC [7, 10] of 16 µg/mL (≈ 40.7 µM).

Work on `CNCCC=C1c2ccccc2Sc2ccc(Cl)cc21` [N-desmethyl-Chlorprothixen, reference compound] yielded an MIC [8, 11] of 16 µg/mL (≈ 53 µM), an MIC [8, 12] of 16 µg/mL (≈ 53 µM) and an MIC ([8]; strain 5. Candida glabrata) of 16 µg/mL (≈ 53 µM). It also gave an MIC [7, 10] of 16 µg/mL (≈ 53 µM) and an MIC [9] of 16 µg/mL (≈ 53 µM).

For `CNCCCN1c2ccccc2Sc2ccc(Cl)cc21` [N-desmethyl-chlorpromazine, reference compound], the MIC [7, 10] was 16 µg/mL (≈ 52.5 µM).

For “Desmethyl-perphenazin [reference compound]”, the MIC [8, 11] was 16 µg/mL, the MIC [8, 12] was 16 µg/mL and the MIC ([8]; strain 5. Candida glabrata) was 16 µg/mL. It also gave an MIC [7, 10] of 16 µg/mL and an MIC [9] of 16 µg/mL.
